In paper PMC9322122, “Development of (4-Phenylamino)quinazoline Alkylthiourea Derivatives as Novel NF-κB Inhibitors” (Pharmaceuticals, 2022):
Read-outs that look alike come from different tables or passages of the source.

Legend:
[1] = Cell viability (WST-1), HEK293; assay type: cell-based; conditions: human, HEK293 cells, mean ± SEM, n = 3
Description: (§1) Cells were incubated with the WST-1 reagent (Thermo Fisher Scientific, Waltham, MA, USA) at 37 °C for 2 h. The cell viability was determined by spectrophotometer at 450 nm.

NF-κB [2] = test system: NF-κB; design: method as in PMID 28291344; conditions: cell-based activity reporter assay; cited from earlier work
[3] = Cell viability (WST-1), A549; assay type: cell-based; conditions: human, A549 cells, mean ± SEM, n = 3
Description: as §1

NF-κB [4] = assay: NF-κB luciferase reporter assay; assay type: cell-based; conditions: Homo sapiens, NF-κB-luciferase-transfected HEK293 cells, TNFα 50 ng/mL; for inhibition at 10 µM: mean ± SEM, n = 3, read-out: NF-κB Luciferase Activity Inh %
Description: NF-κB Luciferase Reporter Vector was purchased from Signosis (Santa Clara, CA, USA) and transfected into HEK-293 cells using FuGENE HD (Promega, Fitchburg, MA, USA) following the manufacturer’s protocol. The transfected cells were incubated in serum-free DMEM for 16 h and then treated with DMSO or indicated compounds. After 3 h, cells were treated with or without 50 ng/mL of Recombinant Human TNFα Protein (R&D systems, Minneapolis, MN, USA) for another 3 h. The protein lysates were analyzed using Steady-Glo® Luciferase Assay System (Promega, Fitchburg, MA, USA) and TECAN Infinite 200 pro (Männedorf, Switzerland).

EGFR kinase = target: EGFR kinase; design: method as in PMID 28291344; conditions: cell-free kinase assay at 100 µM ATP; cited from earlier work
TNFα production = TNFα production in LPS-activated dTHP-1 cells (ELISA); assay type: cell-based; conditions: Homo sapiens; for IC50: LPS-activated dTHP-1 cells, 24 h; for inhibition at 7.5 µM / inhibition at 15 µM: LPS 100 ng/mL for 24 h, dTHP-1 cells; for inhibition at 7.5 µM: read-out: TNFα Production Inh % (7.5 μM); for inhibition at 15 µM: read-out: TNFα Production Inh % (15 μM)
Description: (§2) The HEK-293 (ATCC Cat# CRL-1573, RRID:CVCL_0045) and human monocytic THP−1 cells (ATCC Cat# TIB-202, RRID:CVCL_0006) were, respectively, cultured in DMEM and RPMI 1640 media supplemented with 10% fetal bovine serum, 2 mM L-glutamine, and 1× Antibiotic-Antimycotic at 37 °C in a humidified incubator with 5% CO2. THP−1 cells were differentiated by 100 nM phorbol-12-myristate-13-acetate (PMA) for 4 h and then rested for 44 h as dTHP−1 cells.
(§3) The dTHP−1 cells were treated with indicated compounds for 3 h and then activated with or without 100 ng/mL lipopolysaccharide (LPS; E. coli 0111:B4) for another 24 h. The levels of human IL-6 and TNFα in supernatants were measured by DuoSet® ELISA Development System (R&D systems, Minneapolis, MN, USA) according to the manufacturer’s protocol.

IL-6 production = IL-6 production in LPS-activated dTHP-1 cells (ELISA); assay type: cell-based, human; conditions: for IC50 / inhibition at 7.5 µM / inhibition at 15 µM: Homo sapiens; for IC50: LPS-activated dTHP-1 cells, 24 h; for inhibition at 7.5 µM: read-out: IL-6 Production Inh % (7.5 μM); for inhibition at 15 µM: read-out: IL-6 Production Inh % (15 μM)
Description: as §2, §3

phospho-NF-κB p65 (S536) = assay: Western blot phospho-NF-κB p65 (S536) in dTHP-1 cells; assay type: cell-based, human; conditions: CAPE 10 µM; LPS-stimulated dTHP-1 cells
Description: Cells were lysed in the commercial RIPA Buffer (Thermo Fisher Scientific, Waltham, MA, USA) and then centrifuged at 14,000× g for 20 min. […] Antibodies used in this study were phospho-NF-κB p65 (S468; catalog no. 3039), phospho-NF-κB p65 (S536; catalog no. 3033), phospho-IKKα/β (catalog no. 2697), and IκB (catalog no. 9242) from Cell Signaling Technology (Beverly, MA, USA); GAPDH from ABclonal (catalog no. A10868; Woburn, MA, USA). The labeled signals were determined using an enhanced chemiluminescence system (UVP, Upland, CA, USA). The experiments were performed at least two times in triplicate, providing basically the same results.
The dTHP−1 cells were incubated with DMSO (0.1%), 19 (7.5 µM), or CAPE (10 µM) in medium for 3 h and then stimulated with or without LPS (0.1 µg/mL) for another 30 min. (A) The levels of phospho-NF-κB p65 (S536), phospho-IKKα/β, IκB, and GAPDH were determined by Western blot. The normalized (B) phospho-NF-κB p65 (S536), (C) phospho-IKKα/β, and (D) IκB levels were quantified. All data are expressed as mean ± SEM (n = 3); * p < 0.05 compared with the DMSO + LPS group.

dTHP−1 cells = assay: Cell viability of dTHP-1 cells with or without LPS; assay type: cell-based, human; conditions: in % (unit assumed); for Cell viability of dTHP-1 cells, 5 μM, LPS / Cell viability of dTHP-1 cells, 5 μM, without LPS: 5 μM (so in the source)
Description: as §2, §1, §3

Recombinant EGFR kinase = Recombinant EGFR kinase (Homo sapiens, UniProt P00533); assay: Recombinant EGFR kinase activity; assay type: biochemical; conditions: read-out: Recombinant EGFR Kinase Activity (%inh at 150 nM)
Chain of Recombinant EGFR kinase (P00533 25-1210): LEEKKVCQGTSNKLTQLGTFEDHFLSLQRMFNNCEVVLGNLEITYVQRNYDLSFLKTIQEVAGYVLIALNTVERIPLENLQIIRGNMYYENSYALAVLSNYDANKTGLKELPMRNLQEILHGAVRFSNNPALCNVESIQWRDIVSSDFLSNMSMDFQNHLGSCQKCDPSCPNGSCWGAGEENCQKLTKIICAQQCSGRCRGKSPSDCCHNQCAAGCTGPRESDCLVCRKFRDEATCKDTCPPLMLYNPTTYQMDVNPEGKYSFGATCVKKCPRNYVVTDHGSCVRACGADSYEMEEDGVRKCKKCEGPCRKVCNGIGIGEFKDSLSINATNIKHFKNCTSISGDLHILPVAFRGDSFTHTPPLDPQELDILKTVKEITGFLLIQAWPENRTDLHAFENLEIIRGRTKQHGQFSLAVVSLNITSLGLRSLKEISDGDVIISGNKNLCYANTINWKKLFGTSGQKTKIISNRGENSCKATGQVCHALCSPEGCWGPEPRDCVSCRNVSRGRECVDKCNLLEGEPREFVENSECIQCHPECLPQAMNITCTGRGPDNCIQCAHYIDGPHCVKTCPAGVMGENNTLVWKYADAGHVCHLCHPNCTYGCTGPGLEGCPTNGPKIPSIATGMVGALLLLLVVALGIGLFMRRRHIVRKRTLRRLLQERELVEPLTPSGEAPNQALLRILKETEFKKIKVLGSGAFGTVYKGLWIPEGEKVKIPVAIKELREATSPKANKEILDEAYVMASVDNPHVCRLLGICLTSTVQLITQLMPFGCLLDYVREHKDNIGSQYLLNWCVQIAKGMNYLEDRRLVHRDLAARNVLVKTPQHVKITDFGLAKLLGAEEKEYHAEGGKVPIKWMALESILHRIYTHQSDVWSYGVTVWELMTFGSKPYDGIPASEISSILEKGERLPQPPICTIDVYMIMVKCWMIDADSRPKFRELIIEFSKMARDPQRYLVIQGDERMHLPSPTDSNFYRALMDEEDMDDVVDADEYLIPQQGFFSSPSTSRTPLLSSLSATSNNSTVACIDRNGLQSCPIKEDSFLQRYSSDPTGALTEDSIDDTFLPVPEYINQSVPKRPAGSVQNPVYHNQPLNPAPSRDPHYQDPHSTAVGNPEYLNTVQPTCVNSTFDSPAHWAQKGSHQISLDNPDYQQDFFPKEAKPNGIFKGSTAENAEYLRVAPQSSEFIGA

[5] = 7.5 μM, LPS 100 ng/mL for 24 h, dTHP-1 cells
[6] = LPS 100 ng/mL for 24 h, dTHP-1 cells

| SMILES | viability at 10 µM [1] [%] | IC50 (NF-κB [2]) [µM] | viability at 10 µM [3] [%] | inhibition at 10 µM (NF-κB [4]) [%] | IC50 (NF-κB [4]) [nM] | IC50 (TNFα production) [µM] | IC50 (IL-6 production) [nM] | inhibition at 7.5 µM (TNFα production) [%] | inhibition at 15 µM (TNFα production) [%] | inhibition at 7.5 µM (IL-6 production; [5]) [%] | inhibition at 15 µM (IL-6 production; [6]) [%] | melting point [°C] | inhibition at 0.15 µM (Recombinant EGFR kinase) [%] | Cell viability of dTHP-1 cells, 5 μM, LPS (dTHP−1 cells; LPS 100 ng/mL for 24 h) | Cell viability of dTHP-1 cells, 5 μM, without LPS (dTHP−1 cells; no LPS) | Cell viability of dTHP-1 cells, 7.5 μM, without LPS (dTHP−1 cells; no LPS) | also measured |
| --- | --- | --- | --- | --- | --- | --- | --- | --- | --- | --- | --- | --- | --- | --- | --- | --- | --- |
| S=C(NCc1ccccc1)Nc1ccc2ncnc(Nc3cccc(Cl)c3)c2c1 [A, reference compound] | 72.4 ± 3.9 | 3.7 | 81.7 ± 1.2 | 94.6 ± 1.5 | 790 | – | – | – | – | – | – | – | – | – | – | – | – |
| S=C(NCc1ccccc1)Nc1ccc2ncnc(Nc3ccc(Br)cc3)c2c1 [B] | – | 3.8 | – | – | – | – | – | – | – | – | – | – | – | – | – | – | IC50 (EGFR kinase): > 150 nM |
| O=C(/C=C/c1ccc(O)c(O)c1)OCCc1ccccc1 [CAPE, caffeic acid phenethyl ester, reference compound] | – | – | – | 72.8 | – | 11.4 ± 0.21 | 1100 ± 360 | – | – | – | – | – | – | – | – | – | Phosphorylation of p65 at Ser536 (phospho-NF-κB p65 (S536)): slight reduction in the p65 phosphorylation; Cell viability of dTHP-1 cells, 10 μM, LPS (dTHP−1 cells; CAPE 10 μM, LPS 100 ng/mL for 24 h): 52.2 ± 9.7; Cell viability of dTHP-1 cells, 10 μM, without LPS (dTHP−1 cells; CAPE 10 μM, no LPS): 97.8 ± 0.41 |
| CC(C)(C)c1ccc(Nc2ncnc3ccc(NC(=S)NCc4ccccc4)cc23)cc1 [C] | – | 5.5 | – | – | – | – | – | – | – | – | – | – | – | – | – | – | IC50 (EGFR kinase): > 150 nM |
| Fc1ccc(CNC(=S)Nc2ccc3ncnc(Nc4cccc(Cl)c4)c3c2)c(F)c1 [Compound 6, 1-(4-((3-chlorophenyl)amino)quinazolin-6-yl)-3-(2,4-difluorobenzyl)thiourea] | 85.5 ± 6.4 | – | 75.5 ± 2.9 | 78.4 ± 2.7 | 1600 | 4.4 ± 0.85 | 360 ± 70 | 61.1 ± 5.8 | 76.6 ± 3.8 | 97.6 ± 0.6 | 98.2 ± 1.3 | 178 to 180 | 68 | 5.0 ± 0.35 | 43.6 ± 9.0 | 62.0 ± 14.5 | IL-6 Production Inh % (7.5 μM) (IL-6 production; [5]): almost complete blockage |
| COc1ccc(CNC(=S)Nc2ccc3ncnc(Nc4cccc(Cl)c4)c3c2)c(OC)c1 [Compound 7, 1-(4-((3-Chlorophenyl)amino)quinazolin-6-yl)-3-(2,4-dimethoxybenzyl)thiourea] | 85.9 ± 2.5 | – | 99.5 ± 1.4 | 27.1 ± 3.4 | > 10000 | 11.9 ± 0.7 | 1200 ± 160 | 37 ± 4.9 | 50.3 ± 5.5 | 71 ± 3.4 | 84 ± 0.82 | 204 to 206 | 48 | 91.9 ± 4.2 | 96.8 ± 4.2 | 94.4 ± 0.61 | – |
| S=C(Nc1ccc2ncnc(Nc3cccc(Cl)c3)c2c1)NC1CC1 [Compound 17, 1-(4-((3-Chlorophenyl)amino)quinazolin-6-yl)-3-cyclopropylthiourea] | 103 ± 8.4 | – | 102.6 ± 0.2 | 47 ± 5.3 | > 10000 | 12.3 ± 1 | 720 ± 170 | 19 ± 8 | 62 ± 4.2 | 86 ± 2.3 | 95.8 ± 0.33 | 219.1 to 220.2 | 36.5 | 62.0 ± 3.4 | 84.5 ± 4.8 | 94.3 ± 1.9 | – |
| S=C(NCC1CC1)Nc1ccc2ncnc(Nc3cccc(Cl)c3)c2c1 [Compound 18, 1-(4-((3-Chlorophenyl)amino)quinazolin-6-yl)-3-(cyclopropylmethyl)thiourea] | 75.7 ± 3.8 | – | 79.1 ± 0.6 | 89.9 ± 1.5 | 2800 | 11.5 ± 1.7 | 1100 ± 360 | 31 ± 4.5 | 65.9 ± 7.9 | 78.9 ± 14.8 | 89.4 ± 7 | 226.3 to 228 | 59 | 11.2 ± 3.3 | 87.6 ± 2.5 | 82.7 ± 10.3 | Cell viability of dTHP-1 cells, 7.5 μM, LPS (dTHP−1 cells; LPS 100 ng/mL for 24 h): 34.9 ± 1.6 |
| CC(C)(C)NC(=S)Nc1ccc2ncnc(Nc3cccc(Cl)c3)c2c1 [Compound 20, 1-(tert-Butyl)-3-(4-((3-chlorophenyl)amino)quinazolin-6-yl)thiourea] | 99.7 ± 8 | – | 98.1 ± 3.1 | 75.7 ± 3.1 | 2000 | 5.1 ± 0.43 | 940 ± 110 | 57.4 ± 7.2 | 89.9 ± 0.88 | 91.8 ± 3.5 | 98.7 ± 1.2 | 177.5 to 179.4 | 1.5 | 12.5 ± 0.23 | 42.5 ± 10.6 | 78.0 ± 0.09 | Cell viability of dTHP-1 cells, 7.5 μM, LPS (dTHP−1 cells; LPS 100 ng/mL for 24 h): 32.5 ± 0.89 |
